Measured values: patent US8461117B2, “Chemical linkers and cleavable substrates and conjugates thereof” (Medarex, Inc., priority 2006, dated 2013)

Experiments:
[1] = cited from earlier work
786-O [2] = test: Second in vivo study: 786-O xenografts, cytotoxins (Compounds A, F, H-J) conjugated to anti-CD70 HuMAb 2H5; set-up: species or system CB17.SCID mice; conditions: 786-O xenograft, tumors averaging 200 mm^3, single IP dose Day 0, 0.005-0.03 Toxin μmole, conjugated to CD70.1
Description: (§1) 786-O (ATCC Accession No. CRL-1932) cells were expanded in vitro using standard laboratory procedures. Male CB17.SCID mice (Taconic, Hudson, N.Y.) between 6-8 weeks of age were implanted subcutaneously in the right flank with 2.5 million 786-O in 0.2 ml of PBS/Matrigel (1:1) per mouse. Mice were weighed and measured for tumors three dimensionally using an electronic caliper twice weekly after implantation. Tumor volumes were calculated as height×width×length. Mice with tumors averaging 200 mm^3 were randomized into treatment groups. The mice were dosed intraperitoneally with PBS vehicle, cytotoxin-conjugated isotype control antibody or cytotoxin-conjugated anti-CD70 HuMAb 2H5 on Day 0. Each group contained 8 mice.

786-O [3] = test: First in vivo study: 786-O xenografts, cytotoxins (Compounds A-G) conjugated to anti-CD70 HuMAb 2H5; set-up: species or system CB17.SCID mice; conditions: 786-O xenograft, tumors averaging 200 mm^3, single IP dose Day 0, 0.1 (some also 0.01) Toxin μmole, conjugated to CD70.1
Description: as §1, with “as height x width x length.” for “as height×width×length.”, “contained 7” for “contained 8”

Structure (SMILES)	Efficacy, descending order (mean/median tumor volume versus days past dosing, FIGS. 4-5) (786-O [2])	also measured
COc1c(O)c2c(c3cc(C(=O)N4CCc5c4c(O)c(OC)c4[nH]c(C(=O)N6CC7CC78C6=CC(=O)c6[nH]cc(C)c68)cc54)[nH]c13)CCN2C(N)=O (stereo not drawn) [CC-1065]	–	Antitumor and antimicrobial activity ([1]; both in vitro and in experimental animals (Li et al. 1982)): potent antitumor and antimicrobial activity; Toxicity in experimental animals ([1]; experimental animals): delayed death
CC(C)[C@H](NC(=O)CCOCCOCCOCCOCCNC(=O)CCN1C(=O)C=CC1=O)C(=O)N[C@@H](CCCNC(N)=O)C(=O)N1CCc2c1ccc1[nH]c(C(=O)N3C[C@@H](CBr)c4c3cc(OC(=O)N3CCN(C)CC3)c3ccccc43)cc21 [Compound C]	Compound J/Compound C>Compound H>Compound G/Compound I>Naked CD70.1	–
CC(C)[C@H](NC(=O)CCOCCOCCOCCOCCNC(=O)CCN1C(=O)C=CC1=O)C(=O)N[C@@H](CCCNC(N)=O)C(=O)N1CCc2c1ccc1[nH]c(C(=O)N3C[C@@H](CBr)c4c3cc(OC(=O)N3CCN(C)CC3)c3ccccc43)cc21 [Compound D]	–	Efficacy, descending order (mean/median tumor volume versus days past dosing, FIGS. 1-2) (786-O [3]): Compound D>Compound A>Compound F>Compound B>Compound C>Compound E>Naked CD70.1/Compound G
CC(C)[C@H](NCCNC(=O)CCCN1C(=O)C=CC1=O)C(=O)N[C@@H](CCCNC(N)=O)C(=O)Nc1ccc(C(=O)Nc2ccc3[nH]c(C(=O)N4C[C@@H](CBr)c5c4cc(OC(=O)N4CCN(C)CC4)c4ccccc54)cc3c2)cc1 [Compound H]	Compound J/Compound C>Compound H>Compound G/Compound I>Naked CD70.1	–
CC(C)[C@H](NCCNC(=O)CCCN1C(=O)C=CC1=O)C(=O)N[C@@H](CCCNC(N)=O)C(=O)Nc1ccc(C(=O)Nc2ccc3[nH]c(C(=O)N4C[C@@H](CCl)c5c4cc(OC(=O)N4CCN(C)CC4)c4ccccc54)cc3c2)cc1 [Compound J]	Compound J/Compound C>Compound H>Compound G/Compound I>Naked CD70.1	–
